In patent US20250002470A1, “NITROGEN-CONTAINING COMPOUND, PREPARATION METHOD THEREFOR AND APPLICATION THEREOF” (ZHEJIANG AIXPLORER BIOTECH CO., LTD., priority 2021, published 2025):

These molecules were tested against T1, NLRP3 (Homo sapiens, UniProt Q96P20) (assay: IL-1β (interleukin-1β) secretion in IFN-γ-differentiated, LPS/ATP-stimulated THP-1 cells (half inhibition rate of NLRP3)). Conditions: IFN-γ 25 ng/mL, LPS 50 ng/mL, ATP 5 mM.
T1 construct: endogenous in cells; host or cells: THP-1 cells (IFN-γ differentiated, LPS primed, ATP stimulated)
T1 sequence (Q96P20 whole entry): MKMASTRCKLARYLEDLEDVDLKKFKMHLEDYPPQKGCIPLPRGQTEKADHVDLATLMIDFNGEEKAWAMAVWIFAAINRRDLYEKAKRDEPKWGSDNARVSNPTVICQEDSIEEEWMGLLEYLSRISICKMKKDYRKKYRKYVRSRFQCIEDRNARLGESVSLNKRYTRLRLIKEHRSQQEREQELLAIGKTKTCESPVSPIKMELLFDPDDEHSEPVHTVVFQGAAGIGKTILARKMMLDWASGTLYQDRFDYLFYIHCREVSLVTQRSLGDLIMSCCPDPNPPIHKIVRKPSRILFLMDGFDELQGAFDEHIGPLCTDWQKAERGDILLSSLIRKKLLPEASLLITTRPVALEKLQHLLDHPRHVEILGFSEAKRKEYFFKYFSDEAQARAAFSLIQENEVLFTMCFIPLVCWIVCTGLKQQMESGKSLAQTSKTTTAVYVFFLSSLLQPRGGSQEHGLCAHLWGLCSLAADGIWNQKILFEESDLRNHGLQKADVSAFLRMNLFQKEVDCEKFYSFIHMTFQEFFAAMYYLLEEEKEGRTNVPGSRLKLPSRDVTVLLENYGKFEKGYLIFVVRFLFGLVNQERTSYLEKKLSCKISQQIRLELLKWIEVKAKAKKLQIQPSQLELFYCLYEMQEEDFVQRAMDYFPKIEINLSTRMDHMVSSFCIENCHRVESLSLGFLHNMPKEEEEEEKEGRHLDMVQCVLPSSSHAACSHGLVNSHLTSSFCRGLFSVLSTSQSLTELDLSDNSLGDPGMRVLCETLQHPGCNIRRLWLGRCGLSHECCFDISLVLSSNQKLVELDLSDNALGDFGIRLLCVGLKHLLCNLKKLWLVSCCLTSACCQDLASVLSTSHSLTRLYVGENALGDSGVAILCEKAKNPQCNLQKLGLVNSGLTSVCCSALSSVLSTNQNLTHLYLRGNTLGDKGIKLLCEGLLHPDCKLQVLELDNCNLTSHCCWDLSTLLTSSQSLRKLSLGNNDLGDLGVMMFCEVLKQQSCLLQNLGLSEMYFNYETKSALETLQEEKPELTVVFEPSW
Type: cell-based
Protocol: Remove THP-1 cells from liquid nitrogen and place in a 37° C. water bath until ice melt. Add the cells to 5 mL of warm cell culture medium and centrifuge at 1,000 rpm for 5 min. Discard the supernatant and resuspend and culture in a new cell culture medium.
THP-1 cells are cultured in the culture medium and passaged every 2-3 days.
2.1.1 Add 100 μL of cell suspension per well to the cell plate and incubate the cell plate in a 37° C., 5% CO2 incubator for 24 hours.
2.2.1 Discard the supernatant of IFN-γ differentiation after differentiation treatment. Add 100 μL of serum-free medium containing LPS (final concentration of 50 ng/mL) to the cell plate. The cell plates were incubated in a 37° C., 5% CO2 incubator for 4 h.
Place the cell plate in an incubator at 37° C. and 5% CO2 for 1 hour.
2.2.3 Add 20 μL of 6×ATP per well according to the plate map (final concentration 5 mM) and incubate the cell plate in a 37° C., 5% CO2 incubator for 1 h. Collect the supernatant (60 μL) and store at −20° C.
The capture antibody mAb Mt175 is diluted to 2 μg/mL with PBS (1:250) and added to the cell plate at 15 μL per well. Keep the plate overnight at 4° C.
2.4.1 Discard the coated antibody and wash 4 times with PBST.
2.4.3 Discard the blocking buffer and wash 4 times with PBST.
2.4.4 Add 25 μL of 2.2.3 collected supernatant sample per well and incubate for 2 h at room temperature.
2.4.5 Discard the samples and wash 4 times with PBST.
2.4.6 Add mAb7P10-biotin (concentration 0.5 ug/mL) to blocking buffer, add 15 μL per well to the cell plate, and incubate for 1 hour at room temperature.
2.4.7 Discard the antibody and wash 4 times with PBST.
2.4.8 Streptavidin-HRP was diluted 1:1000 in blocking buffer, 15 μL per well was added to the cell plate, and incubated for 1 hour at room temperature.
2.4.9 Discard streptavidin-HRP and wash 4 times with PBST.
2.4.10 Add 25 μL of HRP substrate (Surmodics-TMBW-0100-01) per well and incubate the cell plate until a blue product appears.
2.4.11 Add 25 μL of stop solution (Surmodics-LSTP-0100-01) per well, and the blue product turns yellow.
2.4.12 Read the cell plate at 450 nm with a microplate reader.

| Compound | IC50 [nM] |
| --- | --- |
| Oc1cc(C(F)(F)F)ccc1-c1nnc(N[C@@H]2CCCC[C@H]2O)c2c1CCC2 [Embodiment 81, 2-(4-(((1R,2R)-2-hydroxycyclohexyl)amino)-6,7-dihydro-5H-cyclopenta[d]pyridazin-1-yl)-5-(trifluoromethyl)phenol] | 34.8 |
| OCCN1CCC[C@@H](Nc2nnc(-c3ccc(Cl)cc3O)c3cc(F)ccc23)C1 [Embodiment 154] | 3.2 |
| C[C@]1(O)C[C@@H](Nc2nnc(-c3ccc(C(F)(F)F)cc3O)c3ccccc23)C1 [Embodiment 65] | 10.4 |
| Cc1ccc(-c2nnc(N[C@@H]3CCCN(C)C3)c3ccccc23)c(O)c1 [Embodiment 27, (R)-5-methyl-2-(4-((1-methylpiperidin-3-yl)amino)phthalazin-1-yl)phenol] | 1.4 |
| C[C@]1(O)C[C@@H](Nc2nnc(-c3ccc(C(F)(F)F)cc3O)c3cc(F)ccc23)C1 [Embodiment 138] | 4.7 |
| CN1CCC[C@@H](Nc2nnc(-c3ccc(C(F)(F)F)cc3O)c3c2C(F)(F)CC3)C1 [Embodiment 112] | 2 |
| CN1CCC[C@@H](Nc2nnc(-c3ccc(C(F)(F)F)cc3O)c3c2CCO3)C1 [Embodiment 19, (R)-2-(4-((1-methylpiperidin-3-yl)amino)-2,3-dihydrofuro[2,3-d]pyridazin-7-yl)-5-(trifluoromethyl)phenol] | 85.2 |
| Cc1nc(N[C@@H]2CCCN(C3CC3)C2)nnc1-c1ccc(C(F)(F)F)cc1O [Embodiment 141] | 1.5 |
| Cc1nc(N[C@@H]2CCCN(C(C)C)C2)nnc1-c1ccc(C(F)(F)F)cc1O [Embodiment 144] | 1.8 |
| COc1ccc2c(-c3ccc(C(F)(F)F)cc3O)nnc(N[C@@H]3CCCN(C)C3)c2c1 [Embodiment 118] | 2.9 |
| C[C@]1(O)C[C@@H](Nc2nnc(-c3ccc(C(F)(F)F)cc3O)c3c2CCC3)C1 [Embodiment 82, 2-(4-(((cis)-3-hydroxy-3-methylcyclobutyl)amino)-6,7-dihydro-5H-cyclopenta[d]pyridazin-1-yl)-5-(trifluoromethyl)phenol] | 47.4 |
| Cc1cc(C)c(-c2cnc(N[C@@H]3CCCN(CC(=O)N[C@H]4C[C@@](C)(O)C4)C3)nn2)c(O)c1 [Embodiment 25] | 317 |
| CN1CCC[C@@H](Nc2nnc(-c3ccc(C(F)(F)F)cc3O)c3cc(F)ccc23)C1 [Embodiment 121] | 1.2 |
| Cc1cc(Cl)cc(O)c1-c1nnc(N[C@@H]2CCCN(C)C2)c2ncccc12 [Embodiment 125] | 9.9 |
| Cc1cc(N[C@@H]2CCCN(C)C2)nnc1-c1ncc(C(F)(F)F)cc1O [Embodiment 12, (R)-2-(4-methyl-6-((1-methylpiperidin-3-yl)amino)pyridazin-3-yl)-5-(trifluoromethyl)pyridin-3-ol] | 31.1 |
| Cc1nc(N[C@@H]2CCCN(C3CCC3)C2)nnc1-c1ccc(C(F)(F)F)cc1O [Embodiment 142] | 11.3 |
| CN1CCC[C@@H](Nc2nnc(-c3ccc(C(F)(F)F)cc3O)c3ccncc23)C1 [Embodiment 31, (R)-2-(4-((1-methylpiperidin-3-yl)amino)pyrido[3,4-d]pyridazin-1-yl)-5-(trifluoromethyl)phenol] | 2.2 |
| CN1CCC[C@@H](Nc2ncc(-c3c(O)cc(C(F)(F)F)cc3Cl)nn2)C1 [Embodiment 107] | 29.2 |
| CN1CCC[C@@H](Nc2nnc(-c3ccc(C(F)(F)F)cc3O)c3cocc23)C1 [Embodiment 109] | 40.6 |
| CN1CCC[C@@H](Nc2nnc(-c3ccc(Cl)cc3O)c3ncccc23)C1 [Embodiment 124] | 20.6 |
| CN1CCC[C@@H](Nc2nnc(-c3ccc(C(F)(F)F)cc3O)c3occc23)C1 [Embodiment 15, (R)-2-(4-((1-methylpiperidin-3-yl)amino)furo[2,3-d]pyridazin-7-yl)-5-(trifluoromethyl)phenol] | 28 |
| CN1CCC[C@@H](Nc2nnc(-c3ccc(Cl)cc3O)c3cccnc23)C1 [Embodiment 123] | 5.47 |
| CN1CCC[C@@H](Nc2nnc(-c3ccc(C(F)(F)F)cc3O)c3ccc(F)cc23)C1 [Embodiment 120] | 4.1 |
